Data from paper PMC4269550, “Lead Optimization of a Pyrazole Sulfonamide Series of Trypanosoma bruceiN-Myristoyltransferase Inhibitors: Identification and Evaluation of CNS Penetrant Compounds as Potential Treatments for Stage 2 Human African Trypanosomiasis” (Journal of Medicinal Chemistry, 2014).
“And” between values parts separate entries of the source, which are not always exact repeats. Identical values can stand only once. Like-named read-outs stand apart in the source and are kept apart here.

Legend:
[1] = Intrinsic clearance (Cli), mouse liver microsomes; assay type: in vitro ADME; conditions: for Cli: mouse microsomes
[2] = test system: HsNMT; assay type: biochemical, human; conditions: for IC50: mean of two or more determinations
[3] = test system: T. b. brucei, BSF427, VSG118; assay: Cell viability assay, trypanosome; assay type: cell-based
[4] = in vitro; assay type: cell-based, human; conditions: human
[5] = target: T1, TbNMT (Trypanosoma brucei brucei, UniProt Q388H8); assay: NMT enzyme inhibition scintillation proximity assay (TbNMT); assay type: biochemical, T. brucei
T1 sequence (Q388H8 1-446): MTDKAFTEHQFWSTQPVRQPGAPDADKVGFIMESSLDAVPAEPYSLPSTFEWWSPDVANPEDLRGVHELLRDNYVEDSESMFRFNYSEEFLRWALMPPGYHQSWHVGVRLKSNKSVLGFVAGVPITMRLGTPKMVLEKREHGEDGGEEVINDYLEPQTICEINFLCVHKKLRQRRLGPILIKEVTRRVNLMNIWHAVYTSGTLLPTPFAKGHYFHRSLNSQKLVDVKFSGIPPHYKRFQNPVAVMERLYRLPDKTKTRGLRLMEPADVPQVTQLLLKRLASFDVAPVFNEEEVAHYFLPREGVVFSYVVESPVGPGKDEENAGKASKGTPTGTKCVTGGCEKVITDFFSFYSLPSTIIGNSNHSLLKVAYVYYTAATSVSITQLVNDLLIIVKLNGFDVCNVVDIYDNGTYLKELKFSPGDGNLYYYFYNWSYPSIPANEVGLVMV

[6] = test system: MRC5, human lung fibroblast cells; assay: in vitro; assay type: cell-based
[7] = mean of two or more determinations, read-out: TbNMT IC50

Cc1nn(C)c(C)c1N(C(F)F)[S+](=O)([O-])c1c(Cl)cc(CCCN2CCN(C)CC2)cc1Cl [compound 44]
Cli (mouse) ([1]; mouse liver microsomes): 4.2 mL min^–1 g^–1

CCN(C)CCCCCCc1cc(Cl)c(S(=O)(=O)N(c2c(C)nn(C)c2C)C(F)F)c(Cl)c1 [compound 83]
S = IC50 HsNMT/EC50 T. brucei ([2]; selectivity): 3 and 5

Cc1nn(C)c(C)c1NS(=O)(=O)c1ccc(-c2ccnc(N3CCNC(C(C)C)C3)c2)cc1 (stereo not shown) [compound 63]
EC50 ([3]; Trypanosoma brucei): 140 nM | EC50 ([4]; read-out: MRC-5 EC50): 8160 nM

Cc1nn(C)c(C)c1NS(=O)(=O)c1ccc(-c2ccnc(N3CC(C)NC(C)C3)c2)cc1 (stereo not shown) [compound 62]
EC50 ([3]; Trypanosoma brucei): 30 nM | EC50 ([4]; read-out: MRC-5 EC50): 2690 nM

Cc1nn(C)c(C)c1N(C(F)F)[S+](=O)([O-])c1c(Cl)cc(CCCN2CCCN(C)CC2)cc1Cl [compound 65]
EC50 ([3]; Trypanosoma brucei): 0.6 nM | EC50 ([4]; read-out: MRC-5 EC50): 410 nM

Cc1nn(C)c(C)c1N(C(F)F)S(=O)(=O)c1c(Cl)cc(CCCOC[C@H]2CCCN2)cc1Cl [compound 87]
IC50 [5, 7]: 3 nM | IC50 [2]: 33 nM | S = IC50 HsNMT/EC50 T. brucei ([2]; selectivity): 7 | EC50 [6]: 3200 nM

Cc1nn(C)c(C)c1NS(=O)(=O)c1c(Cl)cc(CCCN2CCN(C)CC2)cc1Cl [compound 14]
Cli (mouse) ([1]; mouse liver microsomes): 1.7 mL min^–1 g^–1 | Cli [1]: 1.7 mL/min/g

Cc1nn(C)c(C)c1NS(=O)(=O)c1ccc(CCCC2CCNCC2)cc1 [compound 19]
EC50 at 69 h ([4]; MRC-5 EC50): > 50000 nM

Cc1nn(C)c(C)c1N(C)[S+](=O)([O-])c1c(Cl)cc(-c2ccnc(N3CCNCC3)c2)cc1Cl [compound 29]
Cli (mouse) ([1]; mouse liver microsomes): 17 mL min^–1 g^–1

Cc1nn(C)c(C)c1N(C(F)F)S(=O)(=O)c1c(Cl)cc(CCCOC2CC(C)(C)N(C)C(C)(C)C2)cc1Cl [compound 75]
IC50 [5, 7]: 10 nM | IC50 [2]: 1700 nM | S = IC50 HsNMT/EC50 T. brucei ([2]; selectivity): 27 | EC50 [3]: 64 nM | EC50 [6]: 5300 nM

Cc1cc(-c2ccnc(N3CCNCC3)c2)ccc1S(=O)(=O)Nc1c(C)nn(C)c1C [compound 57]
EC50 [3]: 4 nM | EC50 [6]: 530 nM

Cc1nn(C)c(C)c1NS(=O)(=O)c1ccc(-c2cccc(CN3CCN(C)CC3)c2)cc1 [compound 31]
Cli (mouse) ([1]; mouse liver microsomes): 1.2 mL min^–1 g^–1

Cc1nn(C)c(C)c1N(C(F)F)S(=O)(=O)c1c(Cl)cc(CCCOC2CC3CCC(C2)N3C)cc1Cl (stereo not shown) [compound 71]
IC50 [5, 7]: 2 nM | IC50 [2]: 62 nM | S = IC50 HsNMT/EC50 T. brucei ([2]; selectivity): 6 | EC50 [3]: 10 nM | EC50 [6]: 1500 nM

Cc1nn(C)c(C)c1N(C)S(=O)(=O)c1c(Cl)cc(CCCCCn2ccnc2)cc1Cl [compound 35]
Cli (mouse) ([1]; mouse liver microsomes): 2.0 mL min^–1 g^–1

Cc1nn(C)c(C)c1N(C)[S+](=O)([O-])c1ccc(-c2ccnc(N3CCNCC3)c2)cc1 [compound 30]
Cli (mouse) ([1]; mouse liver microsomes): 1.3 mL min^–1 g^–1

Cc1nn(C)c(C)c1NS(=O)(=O)c1ccc(-c2ccnc(N3CCNC(c4ccccc4)C3)c2)cc1 (stereo not shown) [compound 61]
IC50 [5]: 800 nM | IC50 [2]: 2460 nM | S = IC50 HsNMT/EC50 T. brucei ([2]; selectivity): < 1 | EC50 ([3]; Trypanosoma brucei): > 10000 nM | EC50 ([4]; read-out: MRC-5 EC50): > 50000 nM

Cc1nn(C)c(C)c1N(C(F)F)S(=O)(=O)c1c(Cl)cc(CCCN2CCCNCC2)cc1Cl [compound 66]
EC50 [6]: 340 nM

Cc1nn(C)c(C)c1NS(=O)(=O)c1ccc(-c2ccnc(N3CCNC(C)C3)c2)cc1 (stereo not shown) [compound 60]
EC50 ([3]; Trypanosoma brucei): 4 nM | EC50 ([4]; read-out: MRC-5 EC50): 790 nM

Cc1nn(C)c(C)c1N(C(F)F)[S+](=O)([O-])c1c(Cl)cc(CCCC2CCNCC2)cc1Cl [compound 43]
Cli (mouse) ([1]; mouse liver microsomes): 0.8 mL min^–1 g^–1

Cc1nn(C)c(C)c1N(C(F)F)[S+](=O)([O-])c1c(Cl)cc(CCCOC2CCN(C)CC2)cc1Cl [compound 47]
Cli (mouse) ([1]; mouse liver microsomes): 3.7 mL min^–1 g^–1

Cc1nn(C)c(C)c1N(C(F)F)S(=O)(=O)c1c(Cl)cc(CCCOC[C@@H]2CCCCN2C)cc1Cl [compound 50]
Cli (mouse) ([1]; mouse liver microsomes): 9.8 mL min^–1 g^–1

Cc1nn(C)c(C)c1NS(=O)(=O)c1ccc(-c2ccnc(N3CCNCC3)c2)cc1Cl [compound 54]
EC50 [6]: 250 nM

Cc1nn(C)c(C)c1NS(=O)(=O)c1ccc(CCCN2CCN(C)CC2)cc1 [compound 15]
EC50 at 69 h ([4]; MRC-5 EC50): > 50000 nM

Cc1nn(C)c(C)c1N(C(F)F)S(=O)(=O)c1c(Cl)cc(CCCOC[C@H]2CCCCN2C)cc1Cl [compound 52]
Cli (mouse) ([1]; mouse liver microsomes): 14.2 mL min^–1 g^–1

Cc1nn(C)c(C)c1N(C(F)F)S(=O)(=O)c1c(Cl)cc(-c2ccnc(N3CCNCC3)c2)cc1Cl [compound 74]
EC50 [3]: 3 nM | EC50 [6]: 140 nM

Cc1nn(C)c(C)c1N(C(F)F)S(=O)(=O)c1c(Cl)cc(CCCCCCn2ccnc2C(C)C)cc1Cl [compound 70]
IC50 [5]: 25 nM | S = IC50 HsNMT/EC50 T. brucei [2]: 2 | IC50 [2]: 500 nM | EC50 ([3]; Trypanosoma brucei): 270 nM | EC50 ([4]; read-out: MRC-5 EC50): 3600 nM

Cc1nn(C)c(C)c1NS(=O)(=O)c1c(F)cc(-c2ccnc(N3CCNCC3)c2)cc1F [compound 59]
IC50 [5, 7]: 4 nM | EC50 [3]: 5 nM | EC50 [6]: 4700 nM | Cli (mouse) ([1]; Table S1, unit not given): < 0.5

Cc1nn(C)c(C)c1N(C(F)F)S(=O)(=O)c1c(Cl)cc(CCCOC[C@@H]2CCCN2C)cc1Cl [compound 49]
Cli (mouse) ([1]; mouse liver microsomes): 8.7 mL min^–1 g^–1

Cc1nn(C)c(C)c1NS(=O)(=O)c1ccc(-c2ccnc(N3CCNCC3)c2)cc1F [compound 58]
EC50 ([4]; read-out: MRC-5 EC50): 530 nM | Cli (mouse) ([1]; Table S1, unit not given): < 0.5

Cc1nn(C)c(C)c1N(C(F)F)S(=O)(=O)c1c(Cl)cc(CCCCCCN2CCOCC2)cc1Cl [compound 79]
IC50 [5, 7]: 55 nM | EC50 [3]: 320 nM | EC50 [6]: 12200 nM

Cc1nn(C)c(C)c1N(C(F)F)S(=O)(=O)c1c(Cl)cc(CCCCCCn2ccnc2)cc1Cl [compound 67]
IC50 [5]: 5 nM | S = IC50 HsNMT/EC50 T. brucei [2]: 4 | IC50 [2]: 140 nM | EC50 ([3]; Trypanosoma brucei): 35 nM | EC50 ([4]; read-out: MRC-5 EC50): 7200 nM

CCc1nccn1CCCCCCc1cc(Cl)c([S+](=O)([O-])N(c2c(C)nn(C)c2C)C(F)F)c(Cl)c1 [compound 69]
EC50 ([3]; Trypanosoma brucei): 150 nM | EC50 ([4]; read-out: MRC-5 EC50): 7700 nM

Cc1nn(C)c(C)c1N(C(F)F)[S+](=O)([O-])c1c(Cl)cc(CCCCCCn2ccnc2C)cc1Cl [compound 68]
EC50 ([3]; Trypanosoma brucei): 5 nM | EC50 ([4]; read-out: MRC-5 EC50): 910 nM

Cc1nn(C)c(C)c1N(C(F)F)S(=O)(=O)c1c(Cl)cc(CCCOC2CC3CCC(C2)N3C)cc1Cl (stereo not shown) [compound 72]
IC50 [2]: 2 nM | S = IC50 HsNMT/EC50 T. brucei ([2]; selectivity): 10 | EC50 [3]: 0.2 nM | EC50 [6]: 70 nM

Cc1nn(C)c(C)c1N(C(F)F)[S+](=O)([O-])c1c(Cl)cc(CCCCC2CCNCC2)cc1Cl [compound 45]
Cli (mouse) ([1]; mouse liver microsomes): 1.0 mL min^–1 g^–1

Cc1nn(C)c(C)c1N(C(F)F)S(=O)(=O)c1c(Cl)cc(CCCCCCN(C)C)cc1Cl [compound 48]
Cli (mouse) ([1]; mouse liver microsomes): 3.7 mL min^–1 g^–1

Cc1nn(C)c(C)c1N(C)S(=O)(=O)c1ccc(-c2cccc(CN3CCN(C)CC3)c2)cc1 [compound 32]
Cli (mouse) ([1]; mouse liver microsomes): 9.7 mL min^–1 g^–1

Cc1nn(C)c(C)c1N(CC(F)F)S(=O)(=O)c1c(Cl)cc(CCCC2CCN(C)CC2)cc1Cl [compound 41]
Cli (mouse) ([1]; mouse liver microsomes): 2.2 mL min^–1 g^–1 | Cli [1]: 2.2 mL/min/g

Cc1nn(C)c(C)c1N(C)[S+](=O)([O-])c1c(Cl)cc(CCCCCCn2ccnc2)cc1Cl [compound 36]
EC50 ([4]; MRC-5 EC50): 7800 nM | Cli (mouse) ([1]; mouse liver microsomes): 3.0 mL min^–1 g^–1

Cc1nn(C)c(C)c1NS(=O)(=O)c1ccc(-c2ccnc(N3CCNC(Cc4ccccc4)C3)c2)cc1 (stereo not shown) [compound 64]
IC50 [5]: 110 nM | IC50 [2]: 1510 nM | S = IC50 HsNMT/EC50 T. brucei ([2]; selectivity): < 1 | EC50 ([3]; Trypanosoma brucei): > 10000 nM | EC50 ([4]; read-out: MRC-5 EC50): > 50000 nM

Cc1nn(C)c(C)c1NS(=O)(=O)c1c(Cl)cc(Br)cc1Cl [compound 7, 4-bromo-2,6-dichloro-N-(1,3,5-trimethyl-1H-pyrazol-4-yl)-benzenesulfonamide]
EC50 at 69 h [4]: > 50000 nM | Cli (mouse) ([1]; mouse liver microsomes): 14 mL min^–1 g^–1

Cc1nn(C)c(C)c1NS(=O)(=O)c1c(Cl)cc(C#CCN2CCN(C)CC2)cc1Cl [compound 13]
EC50 at 69 h ([4]; MRC-5 EC50): > 50000 nM

Cc1nn(C)c(C)c1NS(=O)(=O)c1c(Cl)cc(CCCC2CCN(C)CC2)cc1Cl [compound 16]
Cli (mouse) ([1]; mouse liver microsomes): 4.3 mL min^–1 g^–1 | Cli [1]: 4.3 mL/min/g

Cc1nn(C)c(C)c1N(C)S(=O)(=O)c1ccc(CCCC2CCN(C)CC2)cc1 [compound 38]
EC50 ([4]; read-out: MRC-5 EC50): 42000 nM | Cli (mouse) ([1]; mouse liver microsomes): 3.7 mL min^–1 g^–1
